From ChEMBL document CHEMBL4052747 (Bioorg Med Chem Lett, 2017)
Counter-ions that a name gives are not always drawn. The source made the active and inactive calls.

How the values were obtained:
Mu-type opioid receptor [1] = target: T1, Mu-type opioid receptor (Homo sapiens, UniProt P35372); assay: Agonist activity at human mu opioid receptor expressed in CHO-dhfr(-) cells assessed as inhibition of forskolin-induced cAMP accumulation by TR-FRET assay; assay type: functional, cell-based
[2] = target: T2, Kappa-type opioid receptor (Homo sapiens, UniProt P41145); assay: Agonist activity at human kappa opioid receptor expressed in CHO-K1 cells assessed as inhibition of forskolin-induced cAMP accumulation by TR-FRET assay; assay type: functional, cell-based
T2 sequence (P41145 whole entry): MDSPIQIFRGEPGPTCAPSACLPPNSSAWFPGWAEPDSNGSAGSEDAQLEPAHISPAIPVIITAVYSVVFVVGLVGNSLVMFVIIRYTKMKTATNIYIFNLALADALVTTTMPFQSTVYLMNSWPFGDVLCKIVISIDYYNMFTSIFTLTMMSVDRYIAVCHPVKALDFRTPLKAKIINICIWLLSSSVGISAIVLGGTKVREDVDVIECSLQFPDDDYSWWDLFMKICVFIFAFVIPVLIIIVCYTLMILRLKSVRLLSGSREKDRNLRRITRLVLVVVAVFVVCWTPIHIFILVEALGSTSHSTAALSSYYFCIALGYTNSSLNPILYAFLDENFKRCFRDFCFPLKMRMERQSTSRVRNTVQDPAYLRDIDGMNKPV

Mu-type opioid receptor [3] = target: T1, Mu-type opioid receptor; assay: Agonist activity at mu opioid receptor (unknown origin)
[4] = target: T2, Kappa-type opioid receptor; assay: Agonist activity at human kappa opioid receptor
Rattus norvegicus = assay: Anti-allodynic activity in rat model of partial sciatic nerve ligation-induced allodynia assessed as effect on withdrawal threshold at 3 and 5 mg/kg, iv dosed 7 days after ligation and measured 30 mins post dose by up-down method with von Frey filaments assay; assay type: functional, organism-based
Homo sapiens = organism: Homo sapiens; assay: Selectivity for human kappa opioid receptor over human mu opioid receptor
Mus musculus = assay: Anti-pruritic activity in mouse assessed as reduction in substance P-induced scratching behavior at 3 mg/kg, ip dosed 15 mins before substance P injection and measured for 30 mins post substance P challenge by MicroAct based method; assay type: functional, organism-based

T1 sequence (P35372 whole entry): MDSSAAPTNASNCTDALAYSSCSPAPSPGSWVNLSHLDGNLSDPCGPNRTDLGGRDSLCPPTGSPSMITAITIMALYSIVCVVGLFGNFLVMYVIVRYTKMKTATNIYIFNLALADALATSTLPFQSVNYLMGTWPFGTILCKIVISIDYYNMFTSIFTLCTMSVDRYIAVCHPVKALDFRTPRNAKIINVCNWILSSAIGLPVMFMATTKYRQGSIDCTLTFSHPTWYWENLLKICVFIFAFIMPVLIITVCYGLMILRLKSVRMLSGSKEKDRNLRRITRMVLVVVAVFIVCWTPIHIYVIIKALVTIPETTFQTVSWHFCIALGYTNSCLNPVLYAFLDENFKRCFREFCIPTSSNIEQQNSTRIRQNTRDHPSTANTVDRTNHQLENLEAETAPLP

SMILES | EC50 (Mu-type opioid receptor [1]) | Emax (Mu-type opioid receptor [1]) | EC50 [2] | Emax [2] | EC50 (Mu-type opioid receptor [3]) | EC50 [4] | Activity (Rattus norvegicus) | Selectivity ratio (Homo sapiens) | Activity (Mus musculus)
CN(C(=O)COc1ccccc1)[C@@H]1CC[C@@]2(O)[C@H]3[C@@H](O)c4ccc(O)c5c4[C@@]2(CCN3CC2CC2)[C@H]1O5 | > 30 µM | 17% | 5.04 nM | 97% |  |  |  |  | 
CN(C(=O)/C=C/c1ccc(O)cc1)[C@@H]1CC[C@@]2(O)[C@H]3[C@@H](O)c4ccc(O)c5c4[C@@]2(CCN3CC2CC2)[C@H]1O5 | > 30 µM | 49% | 0.0953 nM | 98% |  |  |  |  | 
CN(C(=O)/C=C/c1ccncc1)[C@@H]1CC[C@@]2(O)[C@H]3[C@@H](O)c4ccc(O)c5c4[C@@]2(CCN3CC2CC2)[C@H]1O5 | 12.1 µM | 62% | 0.0257 nM | 99% |  |  |  |  | 
CN(C(=O)/C=C/c1ccc(Cl)cc1)[C@@H]1CC[C@@]2(O)[C@H]3[C@@H](O)c4ccc(O)c5c4[C@@]2(CCN3CC2CC2)[C@H]1O5 | 0.0488 µM | 92% | 0.0288 nM | 99% |  |  |  |  | 
Cc1ccc(/C=C/C(=O)N(C)[C@@H]2CC[C@@]3(O)[C@H]4[C@@H](O)c5ccc(O)c6c5[C@@]3(CCN4CC3CC3)[C@H]2O6)cc1 | 0.308 µM | 72% | 0.0494 nM | 101% |  |  |  |  | 
CN(C(=O)/C=C/c1ccoc1)[C@@H]1CC[C@@]2(O)[C@H]3Cc4ccc(O)c5c4[C@@]2(CCN3CC2CC2)[C@H]1O5 [NALFURAFINE HYDROCHLORIDE] |  |  |  |  | 1.7 nM |  |  |  | 
CN(C(=O)/C=C/c1ccccc1)[C@@H]1CC[C@@]2(O)[C@H]3[C@@H](O)c4ccc(O)c5c4[C@@]2(CCN3CC2CC2)[C@H]1O5 | 0.209 µM | 107% | 0.0222 nM | 101% |  |  |  |  | 
CN(C(=O)/C=C/c1ccccn1)[C@@H]1CC[C@@]2(O)[C@H]3[C@@H](O)c4ccc(O)c5c4[C@@]2(CCN3CC2CC2)[C@H]1O5 | 2.88 µM | 89% | 0.0283 nM | 99% |  |  |  |  | 
CN(C(=O)C#Cc1ccccc1)[C@@H]1CC[C@@]2(O)[C@H]3[C@@H](O)c4ccc(O)c5c4[C@@]2(CCN3CC2CC2)[C@H]1O5 | 0.904 µM | 95% | 0.0799 nM | 102% |  |  |  |  | 
CN(C(=O)c1ccccc1)[C@@H]1CC[C@@]2(O)[C@H]3[C@@H](O)c4ccc(O)c5c4[C@@]2(CCN3CC2CC2)[C@H]1O5 | > 30 µM | 44% | > 100 nM | 23% |  |  |  |  | 
CN(C(=O)/C=C/c1cccs1)[C@@H]1CC[C@@]2(O)[C@H]3[C@@H](O)c4ccc(O)c5c4[C@@]2(CCN3CC2CC2)[C@H]1O5 | 4.87 µM | 58% | 0.00466 nM | 101% |  |  |  |  | 
CN(C(=O)CCc1ccccc1)[C@@H]1CC[C@@]2(O)[C@H]3[C@@H](O)c4ccc(O)c5c4[C@@]2(CCN3CC2CC2)[C@H]1O5 | 18.3 µM | 57% | 1.04 nM | 100% |  |  |  |  | 
CN(C(=O)CCCc1ccccc1)[C@@H]1CC[C@@]2(O)[C@H]3[C@@H](O)c4ccc(O)c5c4[C@@]2(CCN3CC2CC2)[C@H]1O5 | 12.9 µM | 99% | 7.51 nM | 96% |  |  |  |  | 
CN(C(=O)/C=C/c1ccsc1)[C@@H]1CC[C@@]2(O)[C@H]3[C@@H](O)c4ccc(O)c5c4[C@@]2(CCN3CC2CC2)[C@H]1O5 | 0.11 µM | 96% | 0.028 nM | 101% |  |  |  |  | 
CN(C(=O)/C=C/c1ccoc1)[C@@H]1CC[C@@]2(O)[C@H]3[C@@H](O)c4ccc(O)c5c4[C@@]2(CCN3CC2CC2)[C@H]1O5 | 1.1 µM | 88% | 0.025 nM | 99% |  | 0.025 nM | Active | 44000 | Active
CN(C(=O)Cc1ccccc1)[C@@H]1CC[C@@]2(O)[C@H]3[C@@H](O)c4ccc(O)c5c4[C@@]2(CCN3CC2CC2)[C@H]1O5 | > 30 µM | 43% | > 100 nM | 18% |  |  |  |  | 
CN(C(=O)/C=C/c1cccnc1)[C@@H]1CC[C@@]2(O)[C@H]3[C@@H](O)c4ccc(O)c5c4[C@@]2(CCN3CC2CC2)[C@H]1O5 | 3.76 µM | 86% | 0.291 nM | 101% |  |  |  |  | 
CN(C(=O)/C=C/c1ccco1)[C@@H]1CC[C@@]2(O)[C@H]3[C@@H](O)c4ccc(O)c5c4[C@@]2(CCN3CC2CC2)[C@H]1O5 | 14.2 µM | 55% | 0.122 nM | 102% |  |  |  |  | 
